From ChEMBL document CHEMBL1212867, “Anhydrotetracycline-peptide conjugates as representatives for ligand-based transactivating systems” (Bioorg Med Chem, 2010)
Non-standard residues stand in square brackets, D forms with d. Residues, ends and D or L forms follow the SMILES beside them. *: point of attachment. X1 = Cc1c2c(c(O)c3c(O)c(N*)ccc13)C(=O)[C@]1(O)C(=O)C(C(N)=O)=C(O)[C@@H](N(C)C)[C@@H]1C2; AEEEA = NCCOCCOCCOCC(=O)O

What was measured:
HeLa [1] = assay: Transactivation of Reverse transactivator Tet repressor-S3 SL439, FG442, SL444 and FA475 mutant expressed in human HeLa cells at 5 uM after 24 hrs by luciferase reporter gene assay relative to untreated basal level; type: cell-based
HeLa [2] = assay: Transactivation of reverse transactivator Tet repressor-S3 expressed in human HeLa cells at 5 uM after 24 hrs by luciferase reporter gene assay relative to anhydrotetracycline; type: cell-based

Cc1c2c(c(O)c3c(O)cccc13)C(=O)[C@]1(O)C(=O)C(C(N)=O)=C(O)[C@@H](N(C)C)[C@@H]1C2
fold change (FC) (HeLa [1]): 3

CSCC[C@H](NC(=O)[C@H](CC(=O)O)NC(=O)[C@H](CC(C)C)NC(=O)[C@H](CC(=O)O)NC(=O)[C@H](Cc1ccccc1)NC(=O)[C@@H](N)CC(=O)O)C(=O)N[C@@H](CC(C)C)C(=O)NCC(=O)NCCOCCOCCOCC(=O)Nc1ccc2c(C)c3c(c(O)c2c1O)C(=O)[C@]1(O)C(=O)C(C(N)=O)=C(O)[C@@H](N(C)C)[C@@H]1C3 (H-DFDLDMLG[AEEEA]-X1)
Activity (HeLa [2]): 150%

CSCC[C@H](NC(=O)[C@H](CC(=O)O)NC(=O)[C@H](CC(C)C)NC(=O)[C@H](CC(=O)O)NC(=O)[C@H](Cc1ccccc1)NC(=O)[C@H](CC(=O)O)NC(=O)CNC(=O)[C@H](CC(C)C)NC(=O)[C@H](CCSC)NC(=O)[C@H](CC(=O)O)NC(=O)[C@H](CC(C)C)NC(=O)[C@H](CC(=O)O)NC(=O)[C@H](Cc1ccccc1)NC(=O)[C@H](CC(=O)O)NC(=O)COCCOCCOCCN)C(=O)N[C@@H](CC(C)C)C(=O)NCC(=O)NCCOCCOCCOCC(=O)Nc1ccc2c(C)c3c(c(O)c2c1O)C(=O)[C@]1(O)C(=O)C(C(N)=O)=C(O)[C@@H](N(C)C)[C@@H]1C3 (H-[AEEEA]DFDLDMLGDFDLDMLG[AEEEA]-X1)
Activity (HeLa [2]): 190% | fold change (FC) (HeLa [1]): 9
